This note sets out measurements from ChEMBL document CHEMBL1128534, “Cyclic lactam alpha-melanotropin analogues of Ac-Nle4-cyclo[Asp5, D-Phe7,Lys10] alpha-melanocyte-stimulating hormone-(4-10)-NH2 with bulky aromatic amino acids at position 7 show high antagonist potency and selectivity at specific melanocortin receptors” (J Med Chem, 1995).

Common to all, as to assay type: functional
The target in assay [1] is Melanocyte-stimulating hormone receptor (Mus musculus, UniProt Q01727).
Assay [2] concerns the target T1, Melanocyte-stimulating hormone receptor (Homo sapiens, UniProt Q01726). In words: Evaluated for agonist at […] frog (Rana pipiens) skin assay.
Assay [3] concerns the target T1, Melanocyte-stimulating hormone receptor.

Each structure is given as a SMILES string.

Sequence of Melanocyte-stimulating hormone receptor (Mus musculus, UniProt Q01727) (Q01727 whole entry): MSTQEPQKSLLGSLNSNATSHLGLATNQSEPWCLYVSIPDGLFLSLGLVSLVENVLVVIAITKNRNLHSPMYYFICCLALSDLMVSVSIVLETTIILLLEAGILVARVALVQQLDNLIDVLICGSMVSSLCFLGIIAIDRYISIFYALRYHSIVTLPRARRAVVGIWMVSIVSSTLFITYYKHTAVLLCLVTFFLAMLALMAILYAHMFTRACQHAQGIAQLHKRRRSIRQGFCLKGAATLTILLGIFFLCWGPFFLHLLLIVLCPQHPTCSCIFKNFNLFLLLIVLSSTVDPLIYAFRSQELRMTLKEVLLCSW
T1 sequence (Q01726 whole entry): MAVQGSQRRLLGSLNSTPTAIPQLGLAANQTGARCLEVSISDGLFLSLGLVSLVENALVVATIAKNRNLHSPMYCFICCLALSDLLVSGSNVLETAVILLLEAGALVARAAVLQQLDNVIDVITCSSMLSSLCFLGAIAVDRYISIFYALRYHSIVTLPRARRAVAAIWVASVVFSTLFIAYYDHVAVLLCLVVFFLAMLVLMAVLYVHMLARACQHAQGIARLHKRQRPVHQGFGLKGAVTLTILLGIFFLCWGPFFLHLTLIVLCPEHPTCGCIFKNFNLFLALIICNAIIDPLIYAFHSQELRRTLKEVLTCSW

Turning to `CCCC[C@H](NC(C)=O)C(=O)N[C@H]1CC(=O)NCCCC[C@@H](C(N)=O)NC(=O)[C@H](Cc2c[nH]c3ccccc23)NC(=O)[C@H](CCCNC(=N)N)NC(=O)[C@@H](Cc2ccc3ccccc3c2)NC(=O)[C@H](Cc2c[nH]cn2)NC1=O`, the midpoint of the response in assay [1], the EC50, lay at 0.039 nM.
For `CCCC[C@H](NC(C)=O)C(=O)N[C@H]1CC(=O)NCCCC[C@@H](C(N)=O)NC(=O)[C@H](Cc2c[nH]c3ccccc23)NC(=O)[C@H](CCCNC(=N)N)NC(=O)[C@@H](Cc2ccc(Cl)cc2)NC(=O)[C@H](Cc2cnc[nH]2)NC1=O`, the EC50 in assay [1] stood at 0.0095 nM; in assay [2] it was 2 nM; in assay [3], 0.005 nM.
In the same order, the values of `CCCC[C@H](NC(C)=O)C(=O)N[C@H]1CC(=O)NCCCC[C@@H](C(N)=O)NC(=O)[C@H](Cc2c[nH]c3ccccc23)NC(=O)[C@H](CCCN=C(N)N)NC(=O)[C@@H](Cc2ccc(F)cc2)NC(=O)[C@H](Cc2c[nH]cn2)NC1=O` are 0.026 nM, 0.1 nM and 0.016 nM.
`CCCC[C@H](NC(C)=O)C(=O)N[C@H]1CC(=O)NCCCC[C@@H](C(N)=O)NC(=O)[C@H](Cc2c[nH]c3ccccc23)NC(=O)[C@H](CCCN=C(N)N)NC(=O)[C@@H](Cc2ccc(I)cc2)NC(=O)[C@H](Cc2c[nH]cn2)NC1=O`: the EC50 in assay [1] turned out to be 0.19 nM; in assay [3], 0.055 nM.

In general, EC50 refers to the concentration needed to bring the measured effect to its halfway point. A low value points to an effect from little substance.
